Consider 4 molecules from patent publication US6596755B2 (Dabur Research Foundation, priority 2001, dated 2003).

One experiment concerns DU145 Prostate. Kind of experiment: three day MTT cytotoxicity assay, DU145. It is filed as cell-based, human. Particulars: Standard (DMSO control), 72 hours. The procedure: (§1) Briefly, a three day MTT cytotoxicity assay was performed, which is based on the principle of uptake of MTT (3-(4,5-dimethylthiazol-2-yl)-2,5-diphenyl tetrazolium bromide), a tetrazolium salt, by the metabolically active cells where it is metabolized by active mitochondria into a blue colored formazan product that is read spectrophoto-metrically. MTT was dissolved in phosphate buffered saline with a pH of 7.4 to obtain an MTT concentration of 5 mg/ml; the resulting mixture was filtered through a 0.22 micron filter to sterilize and remove a small amount of insoluble residue. For each type of tumor cell, 20,000 to 50,000 cells were seeded in a 96-well culture plate and incubated with the formulation or standard in a CO2 incubator for […]. […] The assay was terminated after 72 hours by adding 100 ug (20 ul) of MTT to each well, then incubating for additional one hour, and finally adding 50 ul of 10% SDS-0.01N HCl to each well to lyse the cells and dissolve formazan. After incubating for one hour, the plate was read spectrophoto-metrically at 540 nm and the percentage cytotoxicity calculated.
On the technique in general: Formazan colour is commonly taken as a measure of viable cells.

The next experiment has as its system KB Oral. In words: three day MTT cytotoxicity assay, KB. Format: cell-based, human. The note with it: Standard (DMSO control), 72 hours. The procedure: as §1
Another experiment deals with Molt 4 Leukemia. Kind of experiment: three day MTT cytotoxicity assay, Molt 4. It is filed as cell-based, human. The note with it: Standard (DMSO control), 72 hours. The procedure: as §1
In a further experiment the test system is PTC Colon. Kind of experiment: three day MTT cytotoxicity assay, PTC. Format: cell-based, human. Particulars: Standard (DMSO control), 72 hours. The procedure: as §1
The subject of another experiment is U87MG Glioblastoma. In words: three day MTT cytotoxicity assay, U87MG. Particulars: Standard (DMSO control), 72 hours. Format: cell-based, human. On the procedure: as §1
For another experiment, the system named is L132 Lung. Kind of experiment: three day MTT cytotoxicity assay, L132. It is filed as cell-based, human. The note with it: Standard (DMSO control), 72 hours. The procedure:
as §1

Another experiment relates to Miapaca2 Pancreas. Kind of experiment: three day MTT cytotoxicity assay, Miapaca2. Format: cell-based, human. Particulars: Standard (DMSO control), 72 hours. The procedure: as §1
Another experiment relates to sarcoma tumor. Particulars: in vivo; cited from earlier work.
For another experiment, the system named is sarcoma 180 cells. The note with it: injected into mice along with sarcoma 180 cells; cited from earlier work.

Some results are limits rather than exact numbers.

As to `COC(=O)C1CCC(=O)N1C(O)C(C)=O` (centres unmarked) [MGC1], the ED50 of cytotoxicity is 1700 ± 600 µM in the experiment on DU145 Prostate; 1700 ± 500 µM in the experiment on KB Oral; 1500 ± 400 µM in the experiment with Molt 4 Leukemia; 3700 ± 1400 µM in the experiment on PTC Colon; 2250 ± 500 µM with U87MG Glioblastoma; greater than 5000 µM in the experiment on L132 Lung. In the experiment on Miapaca2 Pancreas, this molecule displayed an ED50 of cytotoxicity of 4200 ± 1300 µM.
As to `CCOC(=O)C1CCC(=O)N1C(O)C(C)=O` (centres unmarked) [MGC4], the ED50 of cytotoxicity in the experiment on DU145 Prostate was 1800 ± 300 µM; in the experiment on KB Oral, 1550 ± 300 µM; with Molt 4 Leukemia it was 1500 ± 200 µM; with PTC Colon it was 3800 ± 1100 µM; in the experiment on U87MG Glioblastoma, 2400 ± 500 µM; with L132 Lung it was greater than 5000 µM. This molecule showed an ED50 of cytotoxicity in the experiment on Miapaca2 Pancreas of 4200 ± 1100 µM.
`CC(=O)OC(C(C)=O)N1C(=O)CCC1C(=O)OCc1ccccc1` (centres unmarked) [MGC7]: the ED50 of cytotoxicity in the experiment with DU145 Prostate was 850 ± 300 µM; in the experiment with KB Oral, 1850 ± 600 µM; with Molt 4 Leukemia, 1500 ± 200 µM; in the experiment with PTC Colon, 2400 ± 500 µM; in the experiment with U87MG Glioblastoma, 1840 ± 600 µM; in the experiment with L132 Lung, greater than 5000 µM. Besides, in the experiment on Miapaca2 Pancreas, the ED50 of cytotoxicity came out at 2400 ± 1000 µM.
Consider `CC(=O)C=O` [Methylglyoxal, 2-oxopropanal], for which the sarcoma tumor growth result with sarcoma tumor is reported as “significantly inhibited”. The tumor development result in the experiment with sarcoma 180 cells is “no tumor developed”.
